Assay results published in patent US9248150B2 (priority 2009, dated 2016).
Where “and” joins values, the source holds several entries; their conditions need not be identical. Equal values may be shown once. Entries after “also recorded” stand apart in the source; their conditions may differ.

Key:
UB/OC-1 cells [1] = assay: ROS generation by H2DCFDA fluorescence, confocal microscopy; assay type: cell-based
From the text: Imaging of ROS generation was done as previously described (P. Puntambekar et al., Essential role of Rac1/NADPH oxidase in nerve growth factor induction of TRPV1 expression, J. NEUROCHEM. 95: 1689-1703 (2005)).

NOX3 mRNA [2] = assay: NOX3 mRNA by real time RT-PCR in UB/OC-1 cells; assay type: cell-based
Protocol: RNA was isolated by adding 1 ml TRI reagent to 100 mg of cochlear tissue or 0.5 ml TRI reagent per well of each six well plate. Tissues were homogenized in TRI reagent using a Polytron (setting 7, 15 sec) and centrifuged at 12,000×g for 10 min at 4° C. The remainder of the procedure was identical to that described in D. Mukherjea et al., NEUROSCIENCE 139:733-740 (2006).
(§1) For real time reverse transcriptase polymerase chain reaction (RT-PCR), one microgram of total RNA was converted to cDNA using iScript cDNA Synthesis Kit (Bio-Rad, Hercules, Calif.) and sample preparations were performed essentially as previously described (D. Mukherjea et al., NEUROSCIENCE 139:733-740 (2006)). Amplification and detection was performed with the Cepheid Smart Cycler Detection System. On completion of amplification, the melting curve analysis was performed by cooling the reaction to 60° C. and then heating slowly 95° C., according to the instruction of manufacturer (Cepheid systems). The cycle number at which the sample reaches the threshold fluorescent intensity is termed the cycle threshold (Ct). The relative change in mRNA levels between untreated control (1) and treated sample (2) was measured using the formula: 2-ΔΔCt (R. Soong et al., Quantitative reverse transcription-polymerase chain reaction detection of cytokeratin 20 in noncolorectal lymph nodes, CLIN. CANCER RES. 7:3423-3429 (2001)). Relative change in mRNA levels between samples was expressed as a percentage of normal control. Negative controls for both target gene and GAPDH was used for all reaction groups. Real time PCR products were analyzed on a 2% agarose gel to verify the correct product sizes and visualization of the amplified product was effected using the dye SyBr Green I (Molecular Probes, Eugene, Oreg.).

NOX3 = NOX3 immunoreactivity in cochlea sections; assay type: in vivo, male Wistar rats
KIM-1 mRNA [3] = assay: KIM-1 mRNA by real time RT-PCR in UB/OC-1 cells; assay type: cell-based
Protocol: as §1, with “Negative controls for both target gene and GAPDH was used for all reaction groups.” left out, “Oreg.). […]” for “Oreg.).”

TRPV1 mRNA [4] = assay: TRPV1 mRNA by real time RT-PCR in UB/OC-1 cells; assay type: cell-based
Protocol: as §1, with “Negative controls for both target gene and GAPDH was used for all reaction groups.” left out, “Oreg.). […]” for “Oreg.).”

KIM-1 = KIM-1 immunoreactivity in cochlea sections; assay type: in vivo, male Wistar rats; conditions: 72 h
Protocol: Cochleas were harvested 72 h later, fixed in 4% paraformaldehyde, decalcified, sectioned and stained for KIM1 immunoreactivity. FIG. 3C is a panel of photomicrographs of the cochlea sections from following the different treatment conditions and stained for KIM-1 immunoreactivity. […] (SVA-stria vascularis, OHC-outer hair cell, RM-Reissner's membrane, SG—spiral ganglion).

UB/OC-1 cells [5] = assay: Intracellular Ca2+ release by Fluo-4AM imaging; assay type: cell-based
Protocol: UB/OC-1 cells were grown on glass coverslips. […] After incubation, cells were washed once with physiological buffer and then imaged by a Fluoview confocal microscope (Olympus Imaging America Inc., Center Valley, Pa., USA).

UB/OC-1 hair cells = assay: Cell viability by trypan blue staining; assay type: cell-based
Protocol: Cells were then treated with trypan blue and the number of viable cells per high power field determined and expressed as a percent of total cell per field. […] Data are present as the mean±standard error from four independent coverslips.

[6] = test system: AT6.1 rat prostate cancer cells; assay: Cisplatin killing of tumor cells (imaging); assay type: cell-based
From the text: Cells were fixed with 4% paraformaldehyde and imaged. FIG. 5B is a panel of photomicrographs of the cell images.

[7] = test system: TRP and P2x receptor channels in UB/OC-1 cells; assay: FM1-43 dye uptake via TRP and P2x channels; assay type: cell-based; conditions: for basal FM1-43 uptake (fluorescence): added alone
From the text: FM1-43 is selectively taken up by cells expressing the TRP and P2x receptor channels.
Cells were scanned every 6 sec by Argon laser (480 nm) and at the 6th scan FM1-43 dye was dropped on the cells. FIG. 6 is panel of photomicrographs of the cells following dye exposure. […] Each gray-scale image to the right of each fluorescence image is the differential interference constrast image for the cells shown in the corresponding fluorescence image.

[8] = test system: outer hair cells of the organ of Corti; assay: Outer hair cell damage by scanning electron microscopy, i.p. transplatin; assay type: in vivo, rat; conditions: 72 h
KIM-1 mRNA [9] = assay: Kidney KIM-1 mRNA by real time RT-PCR; assay type: in vivo, male Wistar rats; conditions: 72 h
From the text: (§2) Kidneys were harvested, total RNA was isolated, reverse transcribed and real time RT-PCR performed substantially as described herein above. FIG. 8A is a bar graph of the increase in mRNA expression for each of KIM-1 (green), NOX3 (blue) and TRPV1 (red) observed. […] Attenuation of these markers by transplatin is indicative of its nephroprotective role.

NOX3 mRNA [10] = assay: Kidney NOX3 mRNA by real time RT-PCR; assay type: in vivo, male Wistar rats; conditions: 72 h
From the text: as §2

TRPV1 mRNA [11] = assay: Kidney TRPV1 mRNA by real time RT-PCR; assay type: in vivo, male Wistar rats; conditions: 72 h
From the text: as §2

[12] = test system: outer hair cells of the organ of Corti; assay: Outer hair cell damage/loss by SEM, trans-tympanic transplatin; assay type: in vivo, Wistar rats
Protocol: Post-treatment ABRs were conducted 72 h later. […] This was abrogated by pretreatment with trans-tympanic transplatin. […] Arrows indicate areas of damage to outer hair cells.

[13] = Cisplatin-induced hearing loss, ABR threshold shifts, i.p. transplatin; assay type: in vivo, male Wistar rats
From the text: Data are presented as the mean±standard error of 8 ears examined from 4 animals per group.

Body weight loss = assay type: in vivo, rat; conditions: data not shown
[14] = test system: dorsal root ganglion (DRG) cells; assay: NGF-induced ROS generation in dorsal root ganglion cells (H2DCFDA); assay type: cell-based, neonatal mice; conditions: transplatin 2.5 μM 30 min prior to NGF 100 ng/ml
Protocol: Recent studies have shown that ROS generation is the single most important mediator of inflammation. Dorsal root ganglion (DRG) cells isolated from neonatal mice have shown increased ROS generation in response to nerve growth factor (NGF; data not shown). […] Fluorescent images were obtained at 0 sec and collected over a period of 5 min after addition of NGF (100 ng/ml). NGF generated ROS is shown by changes in fluorescence intensity over time.

[15] = test system: HEK-293 cells stably transfected with TRPV1 receptor; assay: Capsaicin-induced ROS generation in HEK-VR1 cells; assay type: cell-based; conditions: transplatin 2.5 μM pre-treatment; data not shown
From the text: Thus, transplatin can be useful in the treatment of inflammatory conditions, such as arthritis, inflammatory and chronic pain and cancer pain.

[16] = Body temperature after i.p. transplatin; assay type: in vivo, rat; conditions: transplatin 5.5 mg/kg i.p., every 30 min for 150 min, 2 rats
Protocol: TRPV1 antagonists were initially developed as novel treatments for inflammatory pain. However, it was observed that the administration of classical TRPV1 antagonists produced hyperthermia in animals and human (N. R. Gavva, Body-temperature maintenance as the predominant function of the vanilloid receptor TRPV1. TRENDS PHARMACOL SCI 29:550-557 (2007)), underscoring a role of TRPV1 in the control of body temperature. […] Body temperature was then recorded every 30 min for 150 min. FIG. 11 is a graph of the results observed in two rats (Tp) and a control animal (PBS).

cellular DNA = conditions: cited from earlier work
[17] = transplatin 1, 2.5, 10 μM 30 min prior to cisplatin 5 μM 24 h
[18] = transplatin 5.5 mg/kg i.p. followed by cisplatin 11 mg/kg i.p.
[19] = transplatin 1 μM 30 min prior to cisplatin 5 μM
[20] = transplatin 1 mg/kg i.p. then cisplatin 11 mg/kg i.p.
[21] = transplatin 5.5 mg/kg i.p. alone
[22] = trans-tympanic transplatin 50 μl of 0.5 mg/ml, then cisplatin 11 mg/kg i.p.

N.N.[Cl][Pt][Cl] [cisplatin, reference compound]
ROS generation (H2DCFDA fluorescence) (UB/OC-1 cells [1]; cisplatin 2.5 μM, 30 min): marked increase in ROS generation; also recorded: increases ROS generation
NOX3 mRNA (NOX3 mRNA [2]; cisplatin 5 μM): increase in NOX3 mRNA
NOX3 immunoreactivity in cochlea (OHC, stria vascularis, spiral ganglion) (NOX3; cisplatin 11 mg/kg i.p., 72 h): increased NOX3 protein
increase in KIM-1 mRNA expression over vehicle treated controls (KIM-1 mRNA [3]; cisplatin 5 μM, 24 h): 4 fold and 4±0.5 fold
increase in TRPV1 mRNA expression over vehicle treated controls (TRPV1 mRNA [4]; cisplatin 5 μM, 24 h): 3.6 fold and 3.5±0.7 fold
KIM-1 immunolabeling in organ of Corti / cochlea sections (KIM-1; cisplatin 11 mg/kg i.p.): induction of KIM-1 immunolabeling
intracellular Ca2+ (Fluo-4AM fluorescence) (UB/OC-1 cells [5]; cisplatin 5 μM, 30 min): increased fluorescence
cell death (UB/OC-1 hair cells; cisplatin 20 μM, 24 h): ~80%
cell loss ([6]; cisplatin 100 μM, 24 h): ~80%
uptake of FM1-43 dye ([7]; cisplatin 5 μM alone, 30 min): increased uptake of FM1-43 dye
outer hair cells damaged per field, basal turn of organ of Corti ([8]; cisplatin 11 mg/kg i.p.): ~40%
kidney KIM-1 mRNA expression (KIM-1 mRNA [9]; cisplatin 11 mg/kg i.p.): 50 fold
kidney NOX3 mRNA expression (NOX3 mRNA [10]; cisplatin 11 mg/kg i.p.): 4 fold
kidney TRPV1 mRNA expression (TRPV1 mRNA [11]; cisplatin 11 mg/kg i.p.): 6 fold
outer hair cell damage/loss ([12]; cisplatin 11 mg/kg i.p., 72 h): ~70%

N.N.N.N.N.N.N.N.N.N.N.N.N.N.[Cl-].[Cl-].[Cl-].[Cl-].[Cl-].[Cl-].[O-2].[O-2].[Ru+3].[Ru+3].[Ru+4] [ruthenium red, reference compound]
basal FM1-43 uptake (fluorescence) [7]: less inhibition of basal fluorescence than transplatin

N.N.[Cl][Pt][Cl] [transplatin, trans-diamminedichloroplatinum (II)]
cisplatin-induced increase in ROS generation (UB/OC-1 cells [1]; pretreatment with transplatin 1 μM, then cisplatin 2.5 μM 30 min): attenuated; also recorded: significantly reduced
ROS generation (UB/OC-1 cells [1]; transplatin administered alone): did not stimulate ROS generation
cisplatin-induced increase in NOX3 mRNA (NOX3 mRNA [2]; [17]): attenuated; also recorded: down regulates the increase in NOX3 mRNA
NOX3 mRNA expression (NOX3 mRNA [2]; transplatin alone (1, 2.5 μM)): almost no expression of NOX3 mRNA
cisplatin-induced increase in NOX3 in cochlea (NOX3; transplatin 5.5 mg/kg i.p. immediately before cisplatin 11 mg/kg i.p., 72 h): reduced
NOX3 expression in cochlea vs vehicle control (NOX3; transplatin alone): did not increase NOX3 expression
cisplatin-induced KIM-1 mRNA (KIM-1 mRNA [3]; [17]): attenuated to control levels
cisplatin-induced TRPV1 mRNA expression (TRPV1 mRNA [4]; transplatin 1, 2.5, 10 μM 30 min prior to cisplatin 5 μM 24 h, 10 μM best inhibition): attenuated; also recorded: abrogated by transplatin at higher concentrations
cisplatin-induced KIM-1 immunolabeling in cochlea (KIM-1; [18]): reduced; also recorded: decreased
cisplatin-induced increase in intracellular Ca2+ (UB/OC-1 cells [5]; [19]): abrogated
cell survival (UB/OC-1 hair cells; transplatin 1, 2.5, 10 μM 30 min prior to cisplatin 20 μM 24 h, depending on dose): 80-97%
cell survival compared to vehicle control ([6]; transplatin alone): did not cause significant change in cell survival
basal FM1-43 uptake (fluorescence) [7]: reduced fluorescence below that of the control cells
FM1-43 dye entry after cisplatin [7, 19]: decreased entry of the dye
animals protected [13, 20]: 75%
reductions in ABR thresholds (number protected) [13, 20]: 6 of 8
auditory protection ([13]; transplatin 3 mg/kg i.p. then cisplatin 11 mg/kg i.p.): complete protection
auditory protection ([13]; transplatin 5.5 mg/kg i.p. then cisplatin 11 mg/kg i.p.): complete protection
ABR thresholds ([13]; transplatin alone): did not affect the ABR thresholds
outer hair cells damaged per field, basal turn of organ of Corti ([8]; transplatin 5.5 mg/kg i.p. pretreatment then cisplatin 11 mg/kg i.p.): below 10%
weight loss (Body weight loss; transplatin by itself): did not produce weight loss
cisplatin-mediated weight loss (Body weight loss; transplatin with cisplatin): did not inhibit cisplatin-mediated weight loss
kidney KIM-1 mRNA expression compared to PBS controls (KIM-1 mRNA [9]; [21]): 1.7 fold
kidney KIM-1 mRNA expression (KIM-1 mRNA [9]; [18]): 1.1 fold
kidney NOX3 mRNA expression compared to PBS controls (NOX3 mRNA [10]; [21]): 1.3 fold
kidney NOX3 mRNA expression (NOX3 mRNA [10]; [18]): 1.7 fold
kidney TRPV1 mRNA expression compared to PBS controls (TRPV1 mRNA [11]; [21]): 0.5 fold
kidney TRPV1 mRNA expression (TRPV1 mRNA [11]; [18]): 1.5 fold
NGF-induced ROS generation [14]: inhibited ROS generation
ROS generation by 10 μM capsaicin [15]: inhibited
cisplatin-induced outer hair cell damage (SEM morphology) [12, 22]: almost completely abrogated
outer hair cell damage/loss [12, 22]: ~7%
body temperature [16]: did not produce any apparent increase in body temperature; also recorded: no apparent trend of higher body temperatures
time of maximum DNA binding (cellular DNA): 6 h
